Test results reported in patent US5494927A, “3,5-di-tertiarybutyl-4-hydroxyphenylmethylene derivatives of 2-substituted thiazolidinones, oxazolidinones, and imidazolidinones as antiinflammatory agents” (priority 1994, dated 1996).
Values joined by “and” are separate entries in the source; they are usually repeats but may differ in a detail not shown here. Equal entries are not always repeated. Structures can show the parent of a compound that is named as a salt.

Columns and labels:
[1] = system: cyclooxygenase; test: ARBC whole cell cyclooxygenase assay (PGF2α formation in RBL-1 cells); format: cell-based, rat; details: for IC50: A23187 stimulated; for ARBC % inhibition of PGF2α: @ 10 μM
Description: (§1) ARBL/ARBC WHOLE CELL 5-LIPOXYGENASE AND CYCLOOXYGENASE ASSAYS
(§2) The rat basophilic leukemia cell line (RBL-1) was obtained from the American Type Culture Collection (Rockville, Md.).
(§3) Radioimmunoassay (RIA) kits of LTB4 and PGF2.sbsb.α were obtained from Amersham (Arlington Heights, Ill.) and Seragen (Boston, Me.), respectively.
(§4) All tissue culture media were obtained from GIBCO (Grand Island, N.Y.).
(§5) RBL-1 cells are grown in suspension culture in Eagle's minimum essential medium supplemented with 12% fetal bovine serum at 37° C. in an incubator supplied with air-5% carbon dioxide. Cells are harvested by centrifugation. They are washed with cold phosphate buffered saline pH 7.4 (PBS; NaCl, 7.1 g; Na2 HPO4, 1.15 g; KH2 PO4, 0.2 g; and KCl, 0.2 g/L). Cells are finally suspended in PBS containing 1.0 mM calcium at a density of 2×10^6 cells/mL. Cells are incubated with and without test agent (in DMSO) (1% DMSO is without effect on arachidonic acid metabolism) for 10 minutes at room temperature. Calcium ionophore A23187 (5 μM) is added and cells are incubated for 7 minutes at 37° C. The reaction is stopped by chilling the tubes on ice for 10 minutes. Cells are separated by centrifugation and the supernatant is stored at -20°. Aliquots (100 μL) are analyzed for LTB4 and PGF2.sbsb.α using radioimmunoassay kits as provided by the supplier.
(§6) Table I contains biochemical data obtained from this whole cell assay as IC50 s which are calculated as the amount of test compound causing 50% inhibition or % of inhibition at the named micromoles (μM) of LTB4 or PGF2.sbsb.α formation.

[2] = molecular target: T1, 5-lipoxygenase (Rattus norvegicus, UniProt P12527); test: ARBL whole cell 5-lipoxygenase assay (LTB4 formation in RBL-1 cells); format: cell-based; details: for IC50: A23187 stimulated, read-out: ARBL IC50 for LTB4 inhibition; for inhibition at 10 µM: read-out: ARBL % inhibition of LT
T1 construct: host or cells: RBL-1 rat basophilic leukemia cells
T1 sequence (P12527 1-673): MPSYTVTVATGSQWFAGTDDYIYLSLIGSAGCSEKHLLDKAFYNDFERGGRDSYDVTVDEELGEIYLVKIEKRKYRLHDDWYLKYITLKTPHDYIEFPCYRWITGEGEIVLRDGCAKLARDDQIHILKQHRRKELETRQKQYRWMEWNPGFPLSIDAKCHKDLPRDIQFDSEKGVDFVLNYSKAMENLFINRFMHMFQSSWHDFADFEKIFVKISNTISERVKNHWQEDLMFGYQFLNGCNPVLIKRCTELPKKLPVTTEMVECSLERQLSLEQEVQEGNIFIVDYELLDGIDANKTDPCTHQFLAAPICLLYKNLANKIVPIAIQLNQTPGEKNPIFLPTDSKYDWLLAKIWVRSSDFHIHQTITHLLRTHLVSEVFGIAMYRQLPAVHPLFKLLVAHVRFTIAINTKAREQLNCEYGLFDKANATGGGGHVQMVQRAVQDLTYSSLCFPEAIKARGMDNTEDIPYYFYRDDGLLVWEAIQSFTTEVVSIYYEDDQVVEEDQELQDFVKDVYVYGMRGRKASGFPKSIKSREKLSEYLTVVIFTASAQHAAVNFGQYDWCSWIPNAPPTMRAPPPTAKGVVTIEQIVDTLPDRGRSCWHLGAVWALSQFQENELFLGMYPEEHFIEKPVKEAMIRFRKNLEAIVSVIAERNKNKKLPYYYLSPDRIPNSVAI
Description: as §1, §2, §3, §4, §5, §6

[3] = system: Mycobacterium-induced rat footpad edema; test: Mycobacterium-induced rat footpad edema assay (MFE); format: in vivo; details: for ED40: Rattus norvegicus, swelling 72 hours after Mycobacterium injection, read-out: MFE ID40 (dose at which swelling is inhibited by 40%); for MFE % inhibition of swelling: 72 hours
Description: MYCOBACTERIUM-INDUCED RAT FOOTPAD EDEMA ASSAY (MFE): PROTOCOL
Mycobacterium butyricum (5 mg/mL) is suspended in paraffin oil by sonication for 10 minutes in an ice bath. Footpad edema is induced on Day 0 by injecting 0.1 mL of the Mycobacterium mixture into the left hindpaw of lightly anesthetized rats. Swelling in the injected hindpaw is determined by mercury plethysmography 72 hours after injection. Groups of rats are treated with test compounds (suspended in 0.5% hydroxypropyl methylcellulose with 0.2% Tween-80) or vehicle 1 hour before Mycobacterium injection and on Days 1 and 2. Inhibition of swelling is determined by comparing the change in hindpaw volume in compound- and vehicle-treated rats. An ID40 (the dose at which swelling is inhibited by 40%) is calculated by probit analysis or shown as the % inhibition at the dose expressed as μM, i.e., % at μM.

[4] = system: carrageenan-induced rat foot paw edema; test: Carrageenan-induced rat foot paw edema-2 (CFE-2) assay; format: in vivo; details: dosed 1 hour before carrageenan, edema at 5 hours
Description: Carrageenan-Induced Rat Foot Paw Edema-2
CARRAGEENAN-INDUCED RAT FOOT PAW EDEMA-2 (CFE-2) ASSAY: PROTOCOL
Carageenan solution (1% w/v) is prepared by dissolving 100 mg carrageenan (Marine Colloidal Div., Springfield, N.J.) in 10 mL of sterile saline (0.9%) solution (Travenol). The solution is vortexed for 30 to 45 minutes. Animals are dosed with compound 1 hour before carrageenan challenge. Foot paw edema is induced by injecting 0.10 mL of the 1% carrageenan subcutaneously into the plantar portion of the right hind paw of each rat under light anesthesia. Initial foot paw volume is measured immediately following carrageenan challenge using mercury plethysmography (Buxco Electronics). Edema is measured 5 hours after carrageenan. The difference between the 5-hour and the initial paw volume is expressed as delta edema. The delta edema for each test group of animals is used to calculate the percent inhibition of edema achieved by the compound at the test dose compared with the vehicle control group. The data in Table I (the dose at which swelling is inhibited by the noted percent) is calculated by probit analysis for the dose at which percent inhibition occurs.

[5] = system: gastric ulcers in rats; test: Gastric ulcerogenicity (UD); format: in vivo, Wistar rats; set-up: key: N is not active at the dose tested; details: @ 200; oral, fasted rats, 6 hours
Description: GASTRIC ULCEROGENICITY (UD): PROTOCOL
Male outbred Wistar rats (100-250 g) are fasted for 24 hours. After fasting, test compounds are administered orally (in 2 mL/kg of 0.5% hydroxypropyl methylcellulose) and the rats are denied access to food and water for 6 more hours. The rats are then sacrificed with CO2 so that the stomachs can be removed, opened along the greater curvature, and evaluated for the presence of gastric ulcers. Results are expressed as the percent of rats with gastric ulcers at a given dose or as the UD50 (the dose which causes ulcers in 50% of the rats).

IC50 [1]	IC50 [2]	Molecule	CFE % inhibition of edema ([4]; @ 10)	ARBC % inhibition of PGF2α [1]	inhibition at 10 µM [2]	CFE % inhibition of edema ([4]; @ 30)	also measured
0.33 µM	1.7 µM	CON(C)C1=NC(=O)/C(=C/c2cc(C(C)(C)C)c(O)c(C(C)(C)C)c2)S1	41%				ED40 [3]: 13.2 mg/kg
		5-[[3,5-Bis(1,1-dimethylethyl)-4-hydroxylphenyl]methylene]-2-[[2-(dimethylamino)ethyl]amino-4(5H-thiazolone, (Z)- [Example 10]		87%			
		CC(C)(C)c1cc(/C=C2\SC(N)=NC2=O)cc(C(C)(C)C)c1O [Example 1B, 5-[[3,5-Bis(1,1-dimethylethyl)-4-hydroxyphenyl]methylene]-2-imino-4-thiazolidinone, (Z)-, methanesulfonate (1:1) salt]		80%	100%		Gastric Ulcerogenicity UD50 [5]: N; ED40 [3]: < 10 mg/kg
		CC(C)(C)c1cc(/C=C2\SC(=NO)NC2=O)cc(C(C)(C)C)c1O [Example 4, 5-[[3,5-bis(1,1-dimethylethyl)-4-hydroxyphenyl]methylene]-2,4-thiazolidinedione, 2-oxime (Z)-]	32%	81%	100%	17%	
< 0.6 µM	0.5 µM and 0.8 µM	CSC1=NC(=O)/C(=C/c2cc(C(C)(C)C)c(O)c(C(C)(C)C)c2)S1 [Example 5, 5-[[3,5-Bis(1,1-dimethylethyl)-4-hydroxyphenyl]methylene]-2,(methylthio)-4(5H)-thiazolone, (Z)-]	36%			47%	MFE % inhibition of swelling ([3]; @ 2): 27%; MFE % inhibition of swelling ([3]; @ 50): 23%
4.55 µM	0.39 µM	CC(C)(C)c1cc(/C=C2\SC(=NNC(N)=S)NC2=O)cc(C(C)(C)C)c1O [Example 7, 2-[5-[[3,5-Bis(1,1-dimethylethyl)-4-hydroxyphenyl]methylene]-4-oxo-2-thiazolidinylidene]hydrazine-carbothiamide, (Z)-]					
0.16 µM		CC(C)(C)c1cc(C=C2SC(NC#N)=NC2=O)cc(C(C)(C)C)c1O [Example 9, [5-[[3,5-Bis(1,1-dimethylethyl)-4,hydroxyphenyl]methylene]-4,5-dihydro-4-oxo-2-thiazolyl]cyanamide]				49%	MFE % inhibition of swelling ([3]; @ 3): 32%
		CC(NC1=NC(=O)C(=Cc2cc(C(C)(C)C)c(O)c(C(C)(C)C)c2)S1)C(=O)O (centres unmarked) [Example 12]		55%	100%		
